# Target: T1, Human OTUB1 wild-type (Homo sapiens, UniProt Q96FW1)
# T1 construct: His tag (N); made in house; host or cells: E. coli BL21-CodonPlus (DE3)-RIPIL
# Assay: Covalent modification of OTUB1 (adduct formation), mass spectrometry-based assay (OTUB1 covalent binders; selected CFTR or cGAS based bivalent compounds)
# Format: binding
# Details: covalent adduct formation with OTUB1 protein
# How it was run: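 His-tagged human OTUB1 (10 μM), E. coli-expressed, incubated with compound (2500 μM) in 50 mM Tris-HCl pH 7.5, 150 mM NaCl, 0.5 mM TCEP for 1 h at room temperature. Adduct detected by intact-protein LC/ESI-TOF mass spectrometry after buffer exchange; duplicates.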
# T1 sequence (Q96FW1 whole entry): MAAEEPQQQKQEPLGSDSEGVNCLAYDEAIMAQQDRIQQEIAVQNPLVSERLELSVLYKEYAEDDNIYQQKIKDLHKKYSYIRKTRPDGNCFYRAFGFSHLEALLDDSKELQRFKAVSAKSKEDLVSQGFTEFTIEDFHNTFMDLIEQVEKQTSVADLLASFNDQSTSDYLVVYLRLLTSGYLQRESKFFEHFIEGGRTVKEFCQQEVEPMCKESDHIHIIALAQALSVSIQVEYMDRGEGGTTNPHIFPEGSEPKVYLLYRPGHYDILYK
row,Compound,% of OTUB1 modified [%]
1,"C=CC(=O)N1CCN(c2ccc(C)o2)C(=O)C1 [EN523, reference compound]",40
2,"C=CC(=O)N1C2CCC1CN(c1cccc(C)c1)C2 [XS165-33, 1-(3-(m-tolyl)-3,8-diazabicyclo[3.2.1]octan-8-yl)prop-2-en-1-one]",5
3,"CN(C)CC#CC(=O)N1CC(C(=O)Nc2cc3c(s2)CCCC3)C1 [XS224-108, 1-(4-(dimethylamino)but-2-ynoyl)-N-(4,5,6,7-tetrahydrobenzo[b]thiophen-2-yl)azetidine-3-carboxamide]",100
4,"CN(C)C/C=C/C(=O)N1CC(O)(C(=O)Nc2cc3c(s2)CCCC3)C1 [XS209-176, (E)-1-(4-(dimethylamino)but-2-enoyl)-3-hydroxy-N-(4,5,6,7-tetrahydrobenzo[b]thiophen-2-yl)azetidine-3-carboxamide]",55
5,"Cc1ccc(C(=O)NC2CC(NC(=O)C#CCN(C)C)C2)s1 (stereo not shown) [XS224-148, N-(3-(4-(dimethylamino)but-2-ynamido)cyclobutyl)-5-methylthiophene-2-carboxamide]",90
6,"Cc1ccc(N2CCN(C(=O)/C=C/CN3CCCC3)CC2=O)s1 [XS165-154, (E)-1-(5-methylthiophen-2-yl)-4-(4-(pyrrolidin-1-yl)but-2-enoyl)piperazin-2-one]",70
7,"C=CC(=O)N1CCN(c2cnc(C)n2C)C(=O)C1 [XS165-30, 4-acryloyl-1-(1,2-dimethyl-1H-imidazol-5-yl)piperazin-2-one]",<5
8,"CN(C)C/C=C/C(=O)N1CCN(c2ccc(-c3ccccc3)s2)C(=O)C1 [XS175-158, (E)-4-(4-(dimethylamino)but-2-enoyl)-1-(5-phenylthiophen-2-yl)piperazin-2-one]",45
9,"CC(=O)N1CC2(CC(C(=O)N3CC4CC(C3)N4C(=O)/C=C/CN(C)C)C2)C1 [XS197-133, (E)-1-(3-(2-acetyl-2-azaspiro[3.3]heptane-6-carbonyl)-3,6-diazabicyclo[3.1.1]heptan-6-yl)-4-(dimethylamino)but-2-en-1-one]",25

# System: OTUB1
# Assay: not given
# Details: background statement; cited from earlier work
row,Compound,binding affinity to OTUB1
1,"C=CC(=O)N1CCN(c2ccc(C)o2)C(=O)C1 [EN523, reference compound]",low binding affinity to OTUB1

# System: OTUB1
# Assay: not given
# Details: background statement; cited from earlier work
# Remark: another data set of the same source
row,Compound,inhibition of the enzymatic activity of OTUB1
1,Cc1ccc(S(=O)(=O)Nc2cc(C(F)(F)F)ccc2C(=O)Nc2nc(-c3ccccc3)cs2)cc1 [ML364],inhibit the enzymatic activity of OTUB1

# Target: T2, cGAS and OTUB1 (Homo sapiens, UniProt Q8N884+Q96FW1)
# T2 construct: other panels use HeLa cells; recombinant His-OTUB1 from E. coli described
# T2 sequence (Q8N884 whole entry): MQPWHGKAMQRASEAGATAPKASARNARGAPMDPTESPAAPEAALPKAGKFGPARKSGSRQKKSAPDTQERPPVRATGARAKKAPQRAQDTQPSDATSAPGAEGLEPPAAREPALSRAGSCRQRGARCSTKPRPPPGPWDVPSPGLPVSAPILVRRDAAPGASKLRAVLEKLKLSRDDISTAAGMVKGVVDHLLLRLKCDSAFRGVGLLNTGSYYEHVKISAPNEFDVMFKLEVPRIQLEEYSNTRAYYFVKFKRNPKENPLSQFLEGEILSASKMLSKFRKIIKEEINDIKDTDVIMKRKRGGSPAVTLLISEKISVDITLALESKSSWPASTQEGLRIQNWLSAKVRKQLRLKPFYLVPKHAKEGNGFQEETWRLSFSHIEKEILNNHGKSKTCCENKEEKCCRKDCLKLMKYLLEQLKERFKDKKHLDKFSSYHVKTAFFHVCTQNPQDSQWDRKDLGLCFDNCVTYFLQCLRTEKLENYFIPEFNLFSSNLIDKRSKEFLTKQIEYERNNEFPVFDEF
# T2 sequence (Q96FW1 whole entry): as the sequence (Q96FW1 whole entry) above
# Assay: cGAS co-elution with OTUB1
# Format: binding
# Details: in the presence of compound; FIG. 6F
row,Compound,co-elution of cGAS with OTUB1
1,"CN(C)C/C=C/C(=O)N1CCN(c2ccc(CCNC(=O)CCCCCCCCCC(=O)NCCn3ccc(-c4cc(Cl)c(Cl)c5[nH]c6c(c45)CN(C(=O)CO)CC6)n3)s2)C(=O)C1 [mS8588, (E)-N1-(2-(3-(6,7-dichloro-2-(2-hydroxyacetyl)-2,3,4,5-tetrahydro-1H-pyrido[4,3-b]indol-9-yl)-1H-pyrazol-1-yl)ethyl)-N11-(2-(5-(4-(4-(dimethylamino)but-2-enoyl)-2-oxopiperazin-1-yl)thiophen-2-yl)ethyl)undecanediamide]",cGAS co-elutes with OTUB1
2,CN(C)C/C=C/C(=O)N1CCN(c2ccc(CCC(=O)NCCCCCCCCCNC(=O)Cn3ccc(-c4cc(Cl)c(Cl)c5[nH]c6c(c45)CN(C(=O)CO)CC6)n3)s2)C(=O)C1 [MS7829],cGAS co-elutes with OTUB1
